SMILES strings stand for the structures.

Data set [1] deals with Pseudomonas aeruginosa, serotype 8. Nature of the data set: Animal test of controlling local lesions and systemic symptoms caused by infection of microorganism. It counts as in vivo, rabbits. To be noted: 10% aqueous solution i.v., 2 ml, 3 times per day, 3 days; for rabbits survived: of 10 rabbits. The method, then: 10 rabbits were used in tests. The rabbits were administered with a culture of Gram-negative bacteria (Pseudomonas aeruginosa, serotype 8, wherein the bacterial number in the culture is about 3×10^11) in a dose of 10 ml per day for consecutive 3 days. […] The rabbits were intravenously administered with N-acetyl-D-glucosamine (10% aqueous solution) a dose of 2 ml every time, 3 times per day, for consecutive 3 days. […] In the test group, all 10 rabbits survived, while in the control group, 8/10 rabbits of the control group died within one week, and only 2 rabbits survived.
When N-acetyl-D-glucosamine was replaced with N-acetyl-D-glucosamine hydrochloride in the tests (other conditions were not changed), 7/10 rabbits of test group survived.

Data set [2] has as its system B16 tumor cells. The experiment in a line: Cytological test of regulating micro-heterology variation. It counts as cell-based. Conditions: final concentration 1 g/100 ml, incomplete 1640 media, cultured more than 48 hours. The method, then:
Conventional incomplete 1640 culture media were used for cell culture, and B16 tumor cells (commercially obtained from the tumor cell library of Shanghai Institute of Cytobiology) were inoculated on said media. After being continuously cultured for more than 48 hours, the micro-heterology variation of cells and the control effects of N-acetyl-D-glucosamine thereon were observed under a condition where metabolic wastes affected the growth environment. […] The control cells cultured without N-acetyl-D-glucosamine could not proliferate on the same culture media under same conditions.

For data set [3] the following is noted: in vivo. An excerpt: The toxicological test of the compound of formula (I) includes: • 1. Acute toxicity test: including tests of oral administration, intravenous injection administration, and maximum limit amount for administration; • 2. Ames test; • 3. Micronucleus test of mouse bone marrow cell; • 4. Abnormality test of mouse sperm; • 5. Aberration test of mouse testis chromosome; • 6. Chronic lethal test; • 7. Sub-chronic toxicity (feed for 90 days) test; • 8. Traditional deformity-inducing test.

Data set [4] has as its system Proteus Mirabilis. Nature of the data set: Promoting wave test (bio-wave model). It counts as cell-based. To be noted: final concentration 0.5%, 37° C., 9 hours. An excerpt: 1. Experimental Materials and Method: 1.1 Sample: Pure Compound of Formula (I) 1.2 Experimental Materials: • Strain: Proteus Mirabilis that meets the following biochemical reaction characteristics; dynamics (+), urease (+), lactose (−), glucose (+), H2S (−), phenylalanine deaminase (+). • Culture medium; modified LB culture medium (components: 1% tryptones, 0.5% yeast extract, 1% sodium chloride, 0.1% glucose, 0.002% TTC, and pH=7.2 to 7.4). 1.3 Experimental Method: • Control sample: the Proteus Mirabilis were inoculated at the center of LB plate, incubating at 37° C. for 9 hours; • Test sample: the compound of formula (I) with a final concentration of 0.5% was added to the LB plate, then the Proteus Mirabilis were inoculated by the same method, and cultured at 37° C. for 9 hours. 2. […] This wave-promoting function may explain the effects of using N-acetyl-D-glucosamine or pharmaceutically acceptable salts thereof for treating and controlling local lesions and systematic symptoms caused by infections of virus or bacteria.

In data set [5] the test system is B16 tumor cells. The experiment in a line: Animal test of regulating micro-heterology variation (B16 tumor cells inoculated in rats). The format is in vivo. Conditions: of 50 rats; 5% aqueous solution i.p., 1 ml, 3 times per day, 7 days. From the text: In control group without the administration of the compound of formula (1), many proliferative corpuscles appeared in at least 40 among 50 rats within 1-3 days after the tumor cells were inoculated; many immature cells appeared within 3-5 days; and visible solid tumors finally appeared within about 10 days.

In the case of `CC(=O)N[C@H]1C(O)O[C@H](CO)[C@@H](O)[C@@H]1O.Cl` (stereo partly drawn) [N-acetyl-D-glucosamine hydrochloride], the rabbits survived in data set [1] was 7/10.
Regarding `CC(=O)N[C@@H]1[C@@H](O)[C@H](O)[C@@H](CO)O[C@H]1O` [N-acetyl-D-glucosamine], the “cell proliferation under metabolic waste conditions” value in data set [2] is given as “the cell number stably increased with the culture time”. Also, in data set [3], the “dosage at which acute toxicosis reaction had not appeared” value is “more than 2 g/kg”. In addition, the “bio-wave pattern of colony growth on LB plate” value in data set [4] is “not only concentric rings with an interval of 3 hours, but also many fine waves on each ring”. Also, in data set [1], the “inflammation of nasal mucosa and respiratory tract” value is “inflammations were alleviated”; the rabbits survived was 10 rabbits. For the same molecule, in data set [1] (after one week), the systemic toxic symptoms result is reported as “symptoms were alleviated”. The “number of rats in which solid tumor did not appear” value in data set [5] amounted to 45 rats.

These data come from patent US20070042995A1, “Use of acetyl-d-aminoglycosamine in treatment of local lesions and systematic symptoms related to infections of virus or bacteria” (Third Military Medical University , Chinese People …, priority 2003, published 2007).
